The text below walks through data of PubChem BioAssay (NCI).

Some test systems named below: COLO 205 colon; CAKI-1 renal; M14 melanoma; SF-268 CNS; SNB-19 CNS; MOLT-4 leukemia; LOX IMVI melanoma; HCT-15 colon; RXF 393 renal; SR leukemia.
What all share (test): growth of human tumour cells (NCI), 48 h

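Step 1: Grow cells in 96-well plates. Step 2: Expose to compound for 48 hours at 5 concentrations. Step 3: Interpolate endpoints linearly; if unreached, use highest concentration. The concentration for full growth arrest is given as TGI.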 Where only a bound is given, the exact number is not on record here.

For `CC(=O)ON(C(C)=O)C1C(COC(c2ccccc2)(c2ccccc2)c2ccccc2)OC2OC3(CCCC3)OC21` (stereo not given), the TGI in the assay with COLO 205 colon is above 100 µM; in the assay with CAKI-1 renal, above 100 µM; with M14 melanoma, above 100 µM; with SF-268 CNS it was above 100 µM; in the assay on SNB-19 CNS, above 100 µM; in the assay on MOLT-4 leukemia, above 31 µM. In addition, the TGI is 21.3 µM in the assay with LOX IMVI melanoma, above 100 µM with HCT-15 colon, 60.4 µM in the assay on RXF 393 renal and above 100 µM in the assay with SR leukemia.
For `CC1CCc2c(c(CC3CC(=O)NC(=O)C3)nn2-c2ccccc2)C1` (stereo not given), the TGI in the assay on COLO 205 colon, in the assay on CAKI-1 renal, in the assay on M14 melanoma, with SF-268 CNS, in the assay with SNB-19 CNS and with MOLT-4 leukemia was above 100 µM in each case. Further, the TGI in the assay with LOX IMVI melanoma, in the assay on HCT-15 colon, in the assay with RXF 393 renal and with SR leukemia was above 100 µM throughout.
